Each structure is given as a SMILES string.

The data set is described as follows: Oxidation and reduction potential of fullerodendrimer. In kind it is physicochemical.

On to `c12c3c4c5c1c1c6c7c2c2c8c3c3c9c4c4c%10c5c5c1c1c6c6c%11c7c2c2c7c8c3c3c8c9c4c4c9c%10c5c5c1c1c6c6c%11c2c2c7c3c3c8c4c4c9c5c1c1c6c2c3c41` [Example C60, C60], for which the first oxidation potential entry is “+1,120 mV” and the first reduction potential was −1,120 mV.

Values taken from patent US20040175568A1, “Fullerodendrimer-comprising film” (priority 2003, published 2004).
